# Patent publication US20190358264A1, “METHODS OF TREATING DISEASES ASSOCIATED WITH ILC2 CELLS” (Limm Therapeutics, SA, priority 2016, published 2019)
# System: Nippostrongylus brasiliensis
# Test: NmU23 treatment of N. brasiliensis infected mice
# Type: in vivo, mouse
# Procedure: FIGS. 12a-12f: (FIGS. 12a-12c) Mice were infected with N. brasiliensis larvae and treated with NmU23 peptide (8 g/day) or PBS (control). Lungs were analysed at day 2 post-infection. FIG. 12a, ILC2 response in lungs from NmU23 treated mice (n=5) compared to control (n=5). FIG. 12b, Burden of infection in lungs of infected mice treated with PBS (n=5) or NmU23 (n=5). FIG. 12c, Pulmonary hemorrhage in lung of infected mice treated with NmU23 compared to control. (FIGS. 12d-12f) Mice were infected with N. brasiliensis larvae and treated with NmU23 peptide (8 g/day) or PBS (control). Lungs and small intestine were analysed at day 6 post-infection. FIG. 12d, Neutrophils and eosinophils infiltrate in broncho-alveolar lavage (BAL) in infected mice treated with NmU23 versus PBS. Control n=5; NmU23 n=5. FIG. 12e, Mastocytes and Macrophages infiltrate in broncho-alveolar lavage (BAL) in infected mice treated with NmU23 versus PBS. Control n=5; NmU23 n=5. FIG. 12f, Burden of infection in small intestine of infected mice treated with PBS (n=5) or NmU23 (n=5). Error bars show s.e.m. *P<0.05; **P<0.01; ***P<0.001; ****P<0.0001; ns not significant.
# For in vitro experiments, purified lung and small intestine lamina propria ILC2s were FBS starved for 2 hours prior to stimulation and cultured in complete RPMI (supplemented with 10% foetal bovine serum (FBS), 1% hepes, sodium pyruvate, glutamine, streptomycin and penicillin) at 37° C. For mRNA analysis, ILC2s were stimulated overnight with recombinant mouse Neuromedin U 23 peptide (NmU23, 100 ng/mL; Phoenix pharmaceuticals). Both NmU23-stimulated and control ILC2s were cultured in the presence of IL-2 and IL-7 (10 ng/mL; Peprotech). ILC2s were lysed using RLT buffer (Qiagen). For cytokine protein analysis, ILC2s were incubated exclusively with brefeldin A (eBioscience) for 12 hours prior to intracellular staining. For in vivo experiments, B6 mice were injected intraperitoneal with NmU23 peptide (2 g/day) during Nippostrongylus brasiliensis infection or with a single dose of NmU23 (20 μg) and analyzed after 8 hours. Control mice were treated with PBS alone.
# Nippostrongylus brasiliensis was maintained by monthly passages in Lewis rats as previously described^34. Infective (iL3) worms were kindly provided by Nicola Harris (Lausanne, Switzerland). iL3 larvae were treated for 15 minutes with penicillin/streptomycin (300 U/mL; Thermo Fisher Scientific), gentamicin (1.5 mg/mL; Sigma) and tetracyclin (30 μg/mL; Sigma), washed with PBS and counted under a stereomicroscope. Mice were injected subcutaneously with 500 iL3 in 200 μL of sterile PBS using a 21 G needle. Mice were sacrificed at day 2 post-infection and lungs were collected and analysed.
# Lung parasite burden was quantified in finely minced lungs and as previously described^34. Lung were placed on sterile cheesecloth and suspended in a 50 mL tube containing PBS at 37° C. for at least 4 hours. Viable worms that migrate out into the bottom of the tube were counted under a stereomicroscope (steREO Lumar V12; Zeiss).
# Mice were sacrificed by cervical dislocation, and caudal lobe of the right lung was harvested, fixed in 10% neutral buffered formalin and processed for paraffin embedding. […] Slides were analyzed by a pathologist blinded to experimental groups and images were acquired in a Leica DM2500 microscope, coupled with a Leica MC 170 HD microscope camera. […]
substance,measurement,setting,value
"recombinant mouse Neuromedin U 23 peptide (FKAEYQSPSVGQSKGYFLFRPRN; listed as Mus musculus) [NmU23, NMUR1 agonist neuropeptide, Phoenix pharmaceuticals]",lung haemorrhage in N. brasiliensis infected mice,"NmU23 8 g/day vs PBS, day 2 post-infection",reduced lung haemorrhage
same,"ILC2-derived IL-5, IL-13 and Amphiregulin in lungs of N. brasiliensis infected mice","NmU23 8 g/day vs PBS, day 2 post-infection (FIG. 12a)","increased ILC2-derived IL-5, IL-13 and Amphiregulin"
same,lung parasite burden in N. brasiliensis infected mice,"NmU23 8 g/day vs PBS, day 2 post-infection (FIG. 12b)",decreased
same,intestinal parasite burden in N. brasiliensis infected mice,"NmU23 8 g/day vs PBS, small intestine, day 6 post-infection (FIG. 12f)",decreased
same,eosinophil infiltrates in the lung of N. brasiliensis infected mice,"NmU23 intraperitoneal 2 g/day vs PBS, lungs at 48 hours",increased eosinophil infiltrates
